Patent US20230277612A1, “SAPONIN DERIVATIVES FOR USE IN MEDICINE” (priority 2020, published 2023)
Read-outs that look alike come from different tables or passages of the source. [BNA] = bridged nucleic acid sugar (2',4'-BNA), type not further given; d = 2'-deoxy (DNA)

Key:
[1] = Critical micellar concentration (CMC) by ANS fluorescence; type: physicochemical; conditions: PBS
How it was run: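 Saponin solutions (dry-weight concentrations 1–1400 μM) in purified water or Dulbecco's PBS+/+ were mixed with ANS, 75.86 μM, 6 μg per sample. ANS fluorescence was read at 355 nm excitation and 460 nm emission. CMC was taken from the rise in ANS fluorescence yield as the dye partitions into micelles.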

[2] = system: EGFR expressing cells (HeLa); type: cell-based; conditions: HeLa; + 5 pM EGFdianthin; read-out: IC50 endosomal escape enhancing activity
[3] = pH dependent hydrolysis of the hydrazone bond (HCl solution pH 3, MALDI-TOF-MS); type: physicochemical; conditions: HCl solution at pH 3
HeLa (EGFR+) cells = experiment: Saponin titration in presence and absence of […] EGFdianthin, cell viability; type: cell-based; conditions: Homo sapiens, read-out: General toxicity (IC50 / highest concentration)
Method: To extend this test, saponins from other sources were analyzed. A saponin purified from a root extract of Gypsophila elegans M.Bieb. […] FIG. 63C).

HSP27 mRNA [4] = experiment: HSP27 mRNA gene silencing analysis in A431 cells; type: cell-based; conditions: SO1861-Ald-EMCH alone
From the text: (§1) RNA from cells was isolated and analysed according to standard protocols (Biorad). qPCR primers that were used are indicated in Table A10.

HeLa cells [5] = experiment: cells; type: cell-based; conditions: Homo sapiens, HeLa
Method: (§2) (FIGS. 66a and 66B). Next toxicity was determined, for this the modified saponins were titrated on HeLa and A431 cells. […] Next toxicity was determined, for this the modified saponins were titrated on HeLa and A431 cells.

A431 cells = experiment: cells; type: cell-based; conditions: Homo sapiens
Method: as §2

[6] = system: EGFR expressing cells (A431); experiment: Saponin titration on fixed 10 pM EGFdianthin, cell viability (MTS); type: cell-based; conditions: without EGFdianthin
human red blood cells = experiment: cells; type: cell-based; conditions: Homo sapiens, Erythrocyte
Method: Red blood cells (RBCs) were isolated from a buffy coat using a Ficoll gradient. The obtained RBC pellet (˜4-5 ml) was washed 2× with 50 ml DPBS (without Ca^2+/Mg^2+, PAN-Biotech GmbH). Cells were pelleted by centrifugation for 10 min, 800×g at RT. RBC were counted and resuspended at 500.000.000 c/ml in DPBS (without Ca^2+/Mg^2+), based on total cell count.
(§3) Saponin dilutions were prepared in DPBS (with Ca^2+/Mg^2+, PAN-Biotech GmbH), at 1.11× final strength. For positive lysis control a 0.02% Triton-X100 solution was prepared in DPBS^+/+. Of all compound solutions 135 μl was dispensed/well in a 96 well V-bottom plate. To this 15 μl RBC suspension was added and mixed shortly (10 sec-600 rpm). The plate was incubated 30 min at RT, with gentle agitation. Afterwards the plate was spun for 10 min at 800×g to pellet the RBC and 100-120 μl supernatant was transferred to a standard 96 wp (96 well-plate).
as §3, with “DPBS+/+.” for “DPBS^+/+.”

A2058 (EGFR−) cells = experiment: Saponin derivative titration in presence and absence of […] EGFdianthin, cell viability; type: cell-based; conditions: Homo sapiens, read-out: Toxicity as single compound
[7] = system: EGFR expressing cells (A431); experiment: Saponin titration on fixed 10 pM cetuximab-saporin, cell viability (MTS); type: cell-based; conditions: without cetuximab-saporin
HeLa cells [8] = experiment: Pilot cell-based bioassay: 10 μg/ml saponin with or without 1.5 pM dianthin-EGF, 72 h, relative cell viability; parameters: key to Cell killing activity (+ or −): Cell killing activity (+ or −); Cell killing activity (+ or −)
Method: HeLa cells were incubated for 72 h with the following constructs and cell viability before and after the 72 h-incubation was assessed. In the experiments, cells were exposed to 1.5 pM dianthin-EGF conjugate. A negative control were cells incubated with buffer vehicle and 10 microgram/ml saponin, without dianthin-EGF. Cell viability was set to 100% for the control in which both saponin and EGF-dianthin were omitted. […] Cell viability after 72 h was essentially 0%. For the chemically modified saponin variants, 10 microgram/ml saponin was tested in combination with 1.5 pM dianthin-EGF.

A431 (EGFR++) cells = experiment: Saponin derivative titration in presence and absence of […] EGFdianthin, cell viability; type: cell-based; conditions: Homo sapiens, A-431; read-out: Toxicity as single compound
HSP27 mRNA [9] = experiment: HSP27 mRNA gene silencing analysis in SK-BR-3 cells; type: cell-based; conditions: in the presence of 4000 nM or 4829 nM SO1861-Ald-EMCH; read-out: IC50(SK-BR3) HSP27 gene silencing
From the text: as §1

Molecule | CMC value [1] | IC50 [2] | Hydrolysis of the hydrazone bond [3] | IC50 (HeLa (EGFR+) cells) | HSP27 gene silencing activity alone (HSP27 mRNA [4]) | IC50 (HeLa cells [5]; Table A5, saponin alone, read-out: IC50 nM (Toxicity)) | IC50 (HeLa cells [5]; saponin alone, read-out: IC50 toxicity) | IC50 (A431 cells; A-431, Table A6, saponin alone, read-out: IC50 nM (Toxicity)) | IC50 (A431 cells; A-431, text, saponin alone, read-out: IC50 toxicity) | Cell killing activity of saponin alone [6] | IC50 (human red blood cells; Table A5, read-out: IC50 nM (hemolysis)) | IC50 (human red blood cells; Table A6, read-out: IC50 nM (hemolysis)) | IC50 (human red blood cells; read-out: IC50 hemolytic activity) | IC50 (A2058 (EGFR−) cells) | Cell killing activity of saponin alone [7] | Cell killing activity (+ or −) (HeLa cells [8]; 10 μg/ml SO1861 or SO1861-derivative + […] EGFdianthin) | Cell killing activity (+ or −) (HeLa cells [8]; 10 μg/ml SO1861 or SO1861-derivative alone) | Cell viability after 72 h (HeLa cells [8]; 10 microgram/ml saponin + […] dianthin-EGF, HeLa cells) | IC50 (A431 (EGFR++) cells) | IC50 (HSP27 mRNA [9])
CC(=O)OC1C(C)OC(OC2C(C)OC(OC(=O)[C@]34CCC(C)(C)CC3C3=CCC5[C@@]6(C)CC[C@H](OC7OC(C(=O)O)C(O)C(OC8OCC(O)C(O)C8O)C7OC7OC(CO)C(O)C(O)C7O)[C@@](C)(/C=N/NC(=O)CCCCCN7C(=O)C=CC7=O)C6CC[C@@]5(C)[C@]3(C)C[C@H]4O)C(OC3OC(C)C(OC4OCC(O)C(OC5OC(CO)C(O)C(O)C5O)C4O)C(O)C3O)C2O)C(O)C1OC1OCC(O)C(O)C1O (some centres unmarked) [SO1861-Ald-EMCH] | > 800 µM | 2 µM | gets cleaved | > 25 µM | no HSP27 gene silencing activity | > 100000 nM | > 100000 nM | 30000 nM | 30000 nM | no cell killing activity | > 1e+06 nM | > 1e+06 nM | > 1e+06 nM | > 25 µM | no cell killing activity | + | − | reduced cell viability | > 25 µM | 
HSP27BNA: antisense BNA oligo against HSP27 mRNA, 5′-GGCacagccagtgGCG-3′ (antisense GGCACAGCCAGTGGCG; sugars from the 5' end [BNA]3 d10 [BNA]3, backbone and methylation of C not given here) |  |  |  |  |  |  |  |  |  |  |  |  |  |  |  |  |  |  |  | 0.002 µM
